ChEMBL document CHEMBL1629549, “Effects of minocycline and valproic acid coadministration on atazanavir plasma concentrations in human immunodeficiency virus-infected adults receiving atazanavir-ritonavir” (Antimicrob Agents Chemother, 2008)

Legend:
Assay type in all cases: ADME, organism-based
[1] = Cmax in HIV-infected patient at 300 mg, qd co-administered with 100 mg minocycline and 250 mg valporic acid, bid for 15 days; parameters: dose 300 mg; conditions: human, in vivo
[2] = AUC (0 to 24 hrs) in HIV-infected patient at 300 mg, qd co-administered with 100 mg minocycline and 250 mg valporic acid, bid for 15 days; parameters: time < 24 hr, dose 300 mg; conditions: human, plasma
[3] = Half life in HIV-infected patient at 300 mg, qd co-administered with 100 mg minocycline and 250 mg valporic acid, bid for 15 days; conditions: human, in vivo
[4] = Cmax in HIV-infected patient at 300 mg, qd co-administered with 100 mg minocycline, bid for 15 days; parameters: dose 300 mg; conditions: human, in vivo
[5] = Half life in HIV-infected patient at 300 mg, qd co-administered with 100 mg minocycline, bid for 15 days; conditions: human, in vivo
[6] = Cmax in HIV-infected patient at 300 mg, qd; parameters: dose 300 mg; conditions: human, in vivo
[7] = AUC (0 to 24 hrs) in HIV-infected patient at 300 mg, qd; parameters: time < 24 hr, dose 300 mg; conditions: human, plasma
[8] = Half life in HIV-infected patient at 300 mg, qd; conditions: human, in vivo
[9] = AUC (0 to 24 hrs) in HIV-infected patient at 300 mg, qd co-administered with 100 mg minocycline, bid for 15 days; parameters: dose 300 mg, time < 24 hr; conditions: human, plasma
[10] = Cmax in HIV-infected patient at 100 mg, qd; parameters: dose 100 mg; conditions: human, in vivo
[11] = AUC (0 to 24 hrs) in HIV-infected patient at 100 mg, qd co-administered with 100 mg minocycline and 250 mg valporic acid, bid for 15 days; parameters: dose 100 mg, time < 24 hr; conditions: human, plasma
[12] = Half life in HIV-infected patient at 100 mg, qd; conditions: human, in vivo
[13] = Half life in HIV-infected patient at 100 mg, qd co-administered with 100 mg minocycline and 250 mg valporic acid, bid for 15 days; conditions: human, in vivo
[14] = Cmax in HIV-infected patient at 100 mg, qd co-administered with 100 mg minocycline and 250 mg valporic acid, bid for 15 days; parameters: dose 100 mg; conditions: human, in vivo
[15] = AUC (0 to 24 hrs) in HIV-infected patient at 100 mg, qd co-administered with 100 mg minocycline, bid for 15 days; parameters: time < 24 hr, dose 100 mg; conditions: human, plasma
[16] = Half life in HIV-infected patient at 100 mg, qd co-administered with 100 mg minocycline, bid for 15 days; conditions: human, in vivo
[17] = AUC (0 to 24 hrs) in HIV-infected patient at 100 mg, qd; parameters: dose 100 mg, time < 24 hr; conditions: human, plasma
[18] = Cmax in HIV-infected patient at 100 mg, qd co-administered with 100 mg minocycline, bid for 15 days; parameters: dose 100 mg; conditions: human, in vivo

Cmax [1] [µg/mL] | AUC at 24 h [2] [µg·h/mL] | half-life [3] [h] | Cmax [4] [µg/mL] | half-life [5] [h] | Cmax [6] [µg/mL] | AUC at 24 h [7] [µg·h/mL] | half-life [8] [h] | AUC at 24 h [9] [µg·h/mL] | Cmax [10] [µg/mL] | AUC at 24 h [11] [µg·h/mL] | half-life [12] [h] | half-life [13] [h] | Cmax [14] [µg/mL] | AUC at 24 h [15] [µg·h/mL] | half-life [16] [h] | AUC at 24 h [17] [µg·h/mL] | Cmax [18] [µg/mL] | SMILES
2.6 | 33.5 | 10.4 | 3.4 | 7.93 | 5.13 | 53.5 | 11 | 33.1 | – | – | – | – | – | – | – | – | – | COC(=O)N[C@H](C(=O)N[C@@H](Cc1ccccc1)[C@@H](O)CN(Cc1ccc(-c2ccccn2)cc1)NC(=O)[C@@H](NC(=O)OC)C(C)(C)C)C(C)(C)C [ATAZANAVIR]
– | – | – | – | – | – | – | – | – | 0.957 | 7.27 | 5.4 | 4.4 | 0.884 | 8.19 | 6.64 | 9.6 | 0.99 | CC(C)c1nc(CN(C)C(=O)N[C@H](C(=O)N[C@@H](Cc2ccccc2)C[C@H](O)[C@H](Cc2ccccc2)NC(=O)OCc2cncs2)C(C)C)cs1 [RITONAVIR]
